Measurements published in PMC4924691, “Inhibition of the p53/hDM2 protein-protein interaction by cyclometallated iridium(III) compounds” (Oncotarget, 2016).

Columns and labels:
GADD45α, PUMA, p21 = conditions: A375 cells
Experimental: (§1) Transactivation of p53 restricts cellular proliferation by inducing apoptosis and cycle arrest. Therefore, a terminal deoxynucleotidyl transferase (TdT)-mediated dUTP nick and labelling (TUNEL) and Hoechst staining assay were then performed to investigate DNA fragmentation, a hallmark of apoptosis, in apoptotic cells. […] Finally, the effect of 1 on caspase-3/7, an apoptotic executioner under the control of p53, was investigated in A375 cells using a homogeneous luminescence assay.
A375 cells seeded in 6-well plates were treated with vehicle, NVP-CGM097 or different concentrations of 1 for 6 h. Cells were then harvested and the quantity of each protein samples was measured by the BCA method. Same aliquot (30 μg) of each protein sample was separated by SDS-PAGE according to the reported procedure of immunoblotting. The signals were visualized using Enhanced chemiluminescent Plus reagents (GE Healthcare) and analyzed by Image Lab. The primary antibodies used were: anti-PUMA (1:500, Santa Cruz), anti-GADD45α (1:500, Santa Cruz), anti-p21 (1:500, Santa Cruz), anti-GAPDH (1:500, Santa Cruz), anti-p53 (1:500, Santa Cruz) and anti-hDM2 antibodies (1:500, Santa Cruz).

[1] = system: p53-driven luciferase activity; conditions: A375 cells carrying endogenous wt p53, 6 h
MD-MBA-468 = conditions: read-out: IC50 (MTT), MD-MBA-468; human breast carcinoma, p53 mut, 72 h
Experimental: (§2) The cytotoxicity of 1 towards ten cancers cell lines with different p53 statuses (wt, mut or null) was subsequently examined assessed using the MTT assay (Supplementary Table S2).
(§3) Inhibition of cell growth was measured using the MTT reagent (3-(4, 5-dimethylthiazol-2-yl)-2, 5-diphenyltetrazolium bromide). Different cell lines with variable expression levels of p53 protein (A375, A549, HeLa, A2780, A431, MCF7, MD-MBA-231, MD-MBA-468, T47D and H1299 cell lines) were plated onto 96-well plates at a density of 4, 000 cells/well overnight prior to the addition of 1 at different concentrations ranging from 0.01–100 μM for a further 72 h. 10 μL MTT reagent (5 mg/mL) was added to the wells and the cells were incubated for an additional 4 h before 100 μL of DMSO was added to the wells. The absorbance of each well was read on a SpectraMax M5 microplate reader (Molecular Devices) at the wavelength of 570 nm.

A375 = conditions: read-out: IC50 (MTT), A375; human malignant melanoma, p53 wt, 72 h
Experimental: as §2, §3

A549 = conditions: read-out: IC50 (MTT), A549; human lung carcinoma, p53 wt, 72 h
Experimental: as §2, §3

HeLa = conditions: read-out: IC50 (MTT), HeLa; human cervix carcinoma, p53 wt, 72 h
Experimental: as §2, §3

MCF7 = conditions: read-out: IC50 (MTT), MCF7; human breast carcinoma, p53 wt, 72 h
Experimental: as §2, §3

A431 = conditions: read-out: IC50 (MTT), A431; human colon carcinoma (so in the source), p53 wt, 72 h
Experimental: as §2, §3

T47D = conditions: read-out: IC50 (MTT), T47D; human breast carcinoma, p53 mut, 72 h
Experimental: as §2, §3

H1299 = conditions: read-out: IC50 (MTT), H1299; human lung carcinoma, p53 null, 72 h
Experimental: as §2, §3

A2780 = conditions: read-out: IC50 (MTT), A2780; human ovarian carcinoma, p53 wt, 72 h
Experimental: as §2, §3

MD-MBA-231 = conditions: read-out: IC50 (MTT), MD-MBA-231; human breast carcinoma, p53 mut, 72 h
Experimental: as §2, §3

p53/hDM2 interaction [2] = molecular target: T1, p53/hDM2 interaction (Homo sapiens, UniProt Q00987); assay: Fluorescence anisotropy (FA) assay, displacement of p53_15–31Flu from hDM2_17–126; assay type: binding; conditions: for IC50 / IC50 against the p53/hDM2 interaction as determined by a FA assay: 150 nM hDM2_17–126, 50 nM p53_15–31Flu, 30 min, room temperature; for IC50: read-out: IC50 against the p53/hDM2 interaction as determined by a FA assay; for effect on fluorescence anisotropy / p53/hDM2 interaction: serial dilutions of compound, hDM2_17–126 with p53_15–31Flu
T1 construct: Expression of hDM2_17–126 recombinant fragment was performed as described previously; made in house
Experimental: To experimentally test the library of the organo-metallic iridium(III) compounds as p53/hDM2 PPI inhibitors, a fluorescence anisotropy (FA) assay was performed as previously described. hDM2_17–126 (recombinant fragment) was incubated with fluorescein-labelled p53 peptide (p53_15–31Flu) and serial dilutions of the organometallic iridium(III) compounds.
Figure 2 FA titration data of 1 1 was incubated with 150 nM hDM2_17–126 recombinant fragment and 50 nM fluorescein-labelled p53 peptide (p53_15–31Flu), and fluorescence anisotropy was measured at 480ex/535em.
Expression of hDM2_17–126 recombinant fragment was performed as described previously. Fluorescence anisotropy assays were used to study the displacement of p53 from hDM2 by organometallic compounds. The experiments were performed in triplicate in a volume of 60 μL of the assay buffer (40 mM Na3PO4, pH 7.50, 200 mM NaCl, 0.02 mg/mL BSA) in black flat-bottom 384-well plates. Different concentrations of organometallic compounds were diluted in the assay buffer containing 150 nM hDM2 and 50 nM p53_15–31Flu (Ac-[…](Flu)-NH2, Peptide Protein Research Ltd.) and incubated at room temperature for 30 min. The intensity and anisotropy was monitored at 480ex/535em ([…] bandwidth) using a Perkin Elmer EnvisionTM 2103 MultiLabel plate reader. The data was analyzed according to published methods.

p53/hDM2 interaction [3] = system: T2, p53/hDM2 interaction; assay: Pull-down assay of p53-Flag/hDM2-myc in A375 cells; assay type: cell-based, human; conditions: for amount of precipitated hDM2 (pulled down with p53-Flag): 6 h of treatment; for effect of isolated ligands on the p53/hDM2 interaction: Supplementary Figure S4
T2 construct: host or cells: A375 cells
Experimental: A pull-down assay was conducted to further examine the effect of 1 on the p53/hDM2 interaction. A375 cells were co-transfected with cDNAs encoding p53-Flag and hDM2-myc fusion proteins. After 6 h of treatment with NVP-CGM097 or 1, p53/hDM2 complexes were immunoprecipitated using anti-Flag magnetic beads and analysed by immunoblotting.
A375 cells seeded in 6-well plates were co-transfected with pcDNA-Flag-p53 (Addgene) and pCMV-myc3-hDM2 (Addgene) for 6 h using TurboFect transfection reagent following the instruction from manufacturer. Cells were then cultured in Dulbecco's Modified Eagle's Medium (DMEM) complete medium overnight. Serial dilutions of organometallic compounds in low FBS buffer were placed into the wells, and incubated with cells for additional 6 h. Protein samples were collected, and the concentration in the supernatant was determined with the bicinchoninic acid (BCA) method. The […] of p53/hDM2 in the protein samples were pulled down using anti-Flag magnetic beads to capture the FLAG fusion proteins (Sigma) as previously described. The protein-binding beads were washed three time with TBS buffer (50 mM Tris HCl, 150 mM NaCl, pH 7.4) to remove non-specifically bound proteins, and subsequently subjected to the sodium dodecyl sulfate-polyacrylamide gel electrophoresis (SDS-PAGE) by detection with anti-Flag (1:1000, Sigma-Aldrich) and anti-myc antibodies (1:1000, Beyotime).

[4] = system: p53 and hDM2 protein expression levels; assay: Immunoblotting of p53 and hDM2 protein expression in A375 cells; assay type: cell-based, human; conditions: for effect on hDM2 and p53 protein expression levels: 6 h, up to the highest concentration of 1 μM
Experimental: To assess whether 1 suppressed p53 or hDM2 protein expression levels, resulting in a decrease in the levels of precipitated protein detected in the pull-down assay, an immunoblotting experiment was performed.

[5] = 298 K
Description: (1 picture or pasted object on this page, not shown here) […]

A375 cells = conditions: 0.3 μM, 6 h
Experimental: as §1

caspase-3/7 = conditions: A375 cells, 6 h, dose-dependent
Experimental: as §1

p53/hDM2 PPI = p53/hDM2 PPI (Homo sapiens, UniProt Q00987); conditions: read-out: IC50, decrease of BRET (p53-HaloTag / NanoLuc-hDM2); A375 cells, 6 h
[6] = molecular target: T3, hDM2(17-126) recombinant fragment (human, UniProt Q00987 17-126); assay: fluorescence polarisation; fluorescence anisotropy competition: 150 nM hDM2(17-126) and 50 nM p53(15-31)Flu with serial dilutions of iridium(III) compounds; 40 mM Na3PO4 pH 7.50, 200 mM NaCl, 0.02 mg/mL BSA; room temperature, 30 min; 480ex/535em; conditions: both partners purified
T3 construct: human double minute 2 protein (hDM2, MDM2), human, residues 17-126; also called human double minute 2 protein; source: recombinant fragment, expressed as described previously [33]

## CCc1ccc2[c](c1)[Ir-3]13([c]4cc(CC)ccc4-c4cccc[n+]41)([n+]1ccccc1-2)[n+]1ccc(Cl)c2ccc4c(Cl)cc[n+]3c4c21.F[P-](F)(F)(F)(F)F [Compound 1, 4,7-dichloro-1, 10-phenanthrolinebis(2-(4-ethylphenyl)pyridine)iridium(III) hexafluorophosphate]
GADD45α, PUMA, p21
  expression of GADD45α: significantly increased
  expression of PUMA: significantly increased
  expression of p21: induced
[1]
  p53-dependent luciferase activity: increase
MD-MBA-468
  IC50: 1890 ± 23.3 nM
A375
  IC50: 647 ± 35.4 nM
A549
  IC50: 232 ± 21.8 nM
HeLa
  IC50: 480 ± 44.7 nM
MCF7
  IC50: 547 ± 41 nM
A431
  IC50: 416 ± 37.4 nM
T47D
  IC50: 783 ± 483 nM
H1299
  IC50: 2200 ± 38.3 nM
A2780
  IC50: 495 ± 32 nM
MD-MBA-231
  IC50: 835 ± 42.9 nM
p53/hDM2 interaction [2]
  IC50: 16000 nM
  effect on fluorescence anisotropy / p53/hDM2 interaction: decreased significantly
p53/hDM2 interaction [3]
  amount of precipitated hDM2 (pulled down with p53-Flag): decreased
[4]
  effect on hDM2 and p53 protein expression levels: no effect
[5]; 80% acetonitrile/20% Tris-HCl buffer, 20 μM
  time stable in solution (UV-Vis): at least 7 days
[5]; 90% [d6] DMSO/10% D2O, 5 mM
  time stable in solution (1H NMR): at least 7 days
A375 cells
  DNA fragmentation (TUNEL): induce DNA fragmentation
caspase-3/7
  caspase-3/7 activities: significantly activate
p53/hDM2 PPI
  IC50: ~1000 nM

## F[P-](F)(F)(F)(F)F.[Ir+3].[c-]1ccccc1-n1cccn1.[c-]1ccccc1-n1cccn1.c1ccc(-c2ccccn2)nc1 [Compound 3, 2, 2′-bipyridinebis(1-phenyl-1H-pyrazole)iridium(III) hexafluorophosphate]
p53/hDM2 interaction [2]
  IC50 against the p53/hDM2 interaction as determined by a FA assay: No noticeable binding
  effect on fluorescence anisotropy / p53/hDM2 interaction: no noticeable effect

## Clc1cc2ccc[n+]3c2c2c1ccc[n+]2[Ir-3]312([c]3ccccc3-c3sc4ccccc4[n+]31)[c]1ccccc1-c1sc3ccccc3[n+]12.F[P-](F)(F)(F)(F)F [Compound 4, 5-chloro-1, 10-phenanthrolinebis(2-phenylbenzo[d]thiazole)iridium(III) hexafluorophosphate]
p53/hDM2 interaction [2]
  IC50 against the p53/hDM2 interaction as determined by a FA assay: No noticeable binding
  effect on fluorescence anisotropy / p53/hDM2 interaction: no noticeable effect

## F[P-](F)(F)(F)(F)F.c1cc[c]2c(c1)-c1ccc3ccccc3[n+]1[Ir-3]213([c]2ccccc2-c2ccc4ccccc4[n+]21)[n+]1cccc2c4nccnc4c4ccc[n+]3c4c21 [Compound 5, pyrazino[2,3-f][1, 10]phenanthrolinebis(2-phenylquinoline)iridium(III) hexafluorophosphate]
p53/hDM2 interaction [2]
  IC50: 21000 nM
  effect on fluorescence anisotropy / p53/hDM2 interaction: decreased significantly

## Clc1cc2nc3c4cccnc4c4ncccc4c3nc2cc1Cl.F[P-](F)(F)(F)(F)F.Fc1c[c-]c(-c2ccccn2)c(F)c1.Fc1c[c-]c(-c2ccccn2)c(F)c1.[Ir+3] [Compound 6, 11, 12-dichlorodipyrido[3,2-a:2′,3′-c]phenazinebis(2-(2,4-difluorophenyl)pyridine)iridium(III) hexafluorophosphate]
p53/hDM2 interaction [2]
  IC50: 33000 nM
  effect on fluorescence anisotropy / p53/hDM2 interaction: decreased significantly

## COc1cc2c(cc1OC(C)C)[C@H](c1ccc(Cl)cc1)N(c1ccc(N(C)C[C@H]3CC[C@H](N4CCN(C)C(=O)C4)CC3)cc1)C(=O)C2 [NVP-CGM097, reference compound]
p53/hDM2 interaction [3]
  amount of precipitated hDM2 (pulled down with p53-Flag): decreased
[4]; 1 μM
  expression of hDM2 protein: significantly increased

## Clc1ccnc2c1ccc1c(Cl)ccnc12 [dcphen, 4,7-dichloro-1, 10-phenanthroline]
p53/hDM2 interaction [3]
  effect of isolated ligands on the p53/hDM2 interaction: Neither eppy nor dcphen ligands were found to have a significant effect
[4]
  effect on hDM2 and p53 protein expression levels: Neither eppy nor dcphen ligands were found to have a significant effect

## CCc1ccc(-c2ccccn2)cc1 [eppy, 2-(4-ethylphenyl)pyridine]
p53/hDM2 interaction [3]
  effect of isolated ligands on the p53/hDM2 interaction: Neither eppy nor dcphen ligands were found to have a significant effect
[4]
  effect on hDM2 and p53 protein expression levels: Neither eppy nor dcphen ligands were found to have a significant effect

B1: fluorescein-labelled p53 peptide (p53 15-31 Flu) (peptide)
peptide: SQETFSDLWKLLPENNVC
modifications: N-terminal acetyl (Ac-); fluorescein on the C-terminal cysteine, C(Flu); C-terminal amide (-NH2)
notes: added C-terminal cysteine that carries the fluorescein; not part of p53 15-31; source: synthetic peptide, bought: Peptide Protein Research Ltd
[6]
  binding result: binds
